According to PMC12756790, “Site-Selective Protein Modification via Peptide-Directed Proximity Catalysis” (ACS Omega, 2025):

Assays:
insulin [1] = target: T1, insulin (Homo sapiens, UniProt P01308); assay: peptide-directed proximity catalysis labeling of insulin, intact protein LC-MS; format: biochemical; conditions: control (scrambled peptide, peptide lacking PyOx, or PyOx-azide) with biotin-NASA 3b, pH 7.4, 2 h, 22 °C
Protocol: With these reagents in hand, we attempted peptide-directed proximity catalysis on insulin. Initial experiments were performed in pH 7.4 phosphate buffer at a concentration of 50 μM, which was above the K d calculated for peptide binding (Figure ). Varying equivalents of pyridinium oxime peptide P1-(PyOx) 1 (0, 1.25, 2.5, 5, or 10 equiv wrt protein) were then added, followed by the addition of biotin–NASA 3b (20 equiv wrt protein). […] After 2 h at room temperature (22 °C), reactions were analyzed by intact protein liquid chromatography mass spectrometry (LC-MS). […] Further controls using either a scrambled peptide (FYRTGF-(PyOx)1), peptide lacking the pyridinium oxime P1, or pyridinium oxime-azide 2 also gave no labeling, providing further evidence that labeling was mediated by a specific protein–peptide binding interaction, and catalyzed by the pyridinium oxime motif.
General protocol: A solution of PyOx-peptide probe ([…] in pH 7.4 PBS, 25 µL, 7.4 PBS, 25 µL, 1.25 nmol; Final concentration 25 µM ) and shaken for 30 min . A solution of biotin-NASA 3b (25 mM in DMSO, 1 µL, 25 nmol; Final concentration 490 µM) was then added and the mixture shaken at room temperature for 2 h. Samples were then analysed by LC-MS without purification.
Figure S5: Deconvoluted mass spectra from general labelling protocol showing modified and unmodified insulin. […]

RNase S = system: RNase S; design: method as in Kim and Raines, Protein Sci. 1993 (ref 26); conditions: S-peptide cleaved from N-terminal domain of RNase A; ref Kim and Raines, Protein Sci. 1993 (ref 26); cited from earlier work
insulin [2] = target: T1, insulin; assay: QCM-D binding of gold-tethered peptides to insulin; conditions: predicted from QCM-D of model peptides, 'noting the assumptions detailed above'
Description: To predict whether the insulin-binding capability of P1 would be maintained after the introduction of a pyridinium oxime catalyst, peptides bearing either an N- or C-terminal cysteine (C-P1 and P1-C, respectively) were first synthesized and tethered to a gold sensor for quartz crystal microbalance with dissipation monitoring (QCM-D) analysis. It is important to note that these model peptides lacked the positive charge that would be introduced upon installation of a pyridinium oxime, and so evidence of binding was expected to be indicative of binding potential, rather than providing an exact measure of binding affinity.
Sensor preparation: QCM-D gold sensors (QSX 301, Biolin Scientific) were cleaned by UV–ozone treatment (30 min), followed by sonication in a 2% Hellmanex III solution (5 min) and then sonication in ultrapure water (5 min). Sensors were then dried with N2 […]
Binding studies: Following cleaning, each sensor was installed into the flow modules of a Q-Sense E4, QFM 401 system by Biolin Scientific. Each chamber was then filled with Milli-Q water at a flow rate of 100 μL/min controlled by a four-channel peristaltic pump. To achieve a stable baseline, PBS was left to flow through the modules at 100 μL/min until the drift in frequency was <±1 Hz over 10 min. […]

T1 sequence (P01308 25-54 limits assumed): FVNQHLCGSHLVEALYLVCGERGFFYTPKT
T1 sequence (P01308 90-110 limits assumed): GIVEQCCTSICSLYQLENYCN

Substance | insulin labeling, controls (insulin [1]) | binding affinity to remaining parent protein RNase S (RNase S) | predicted affinity for target protein (insulin [2])
FYRTGF-(PyOx)1 [scrambled peptide control] | no labeling |  | 
KETAAAKFERQHMDSSTSA [P2] |  | nM binding affinty | 
RGFFYT [P1] | no labeling |  | μM affinity
